Marks after values point to notes of the source that are not given here.
Tests used:
Type in all cases: in vivo
[1] = ZSF1 rat 28-week in-feed study: body weight, food and water intake; settings: obese ZSF1 rats, 10 mpk in-feed
Experimental: (§1) The effects of Compound A (“A”) on renal function, plasma triglycerides, plasma cholesterol, kidney collagen I, kidney collagen III, renal histology, glomerular filtration rate, fibrosis score, and mRNA gene expression (profibrotic genes and integrin β3) were evaluated in male obese ZSF1 rats (a hybrid F1 of Zucker diabetic fatty rat and spontaneously hypertensive heart failure rat; a diabetic nephropathy model) when administered as in-feed for 28 weeks. Sixty obese male ZSF1 rats were randomized to five groups: Obese control (n=12), Compound A 60 mpk (n=12), Compound A 200 mpk (n=12), Compound A 400 mpk (n=12), Enalapril 10 mpk (n=12); Eight lean male ZSF1 rats were used for normal control. Renal functional changes were monitored by blood and urine analysis following in-feed dosing for 28 weeks. Compound exposure was also monitored during the study.

[2] = system: male obese ZSF1 rats (diabetic nephropathy model); assay: ZSF1 rat 28-week in-feed study: urinary protein (UPCR, 24 h excretion); settings: obese ZSF1 rats, 10 mpk in-feed
Experimental: as §1

[3] = system: male obese ZSF1 rats (diabetic nephropathy model); assay: ZSF1 rat study: GFR measurement by FITC-sinistrin clearance; settings: obese ZSF1 rats, 10 mpk in-feed, week 28
Experimental: as §1
For the measurement of GFR, a miniaturized device (NIC-Kidney, Mannheim Pharma & Diagnostics, Mannheim, Germany) was used. In brief, the device (batteries, diodes, and microprocessor) containing an optical component was affixed on a depilated region of the back using a double-sided sticky patch (Lohmann GmbH KG, 56567, Neuwied, Germany) under isofluorane anesthesia (3% isoflurane mixed with oxygen). After a resting baseline period of 1-1.5 minutes, a bolus of FITC-sinistrin (5 mg/100 g body weight, dissolved in 0.5 mL sterile isotonic saline) was injected through the tail vein. The rat was then placed in a clean cage for recovery from anesthesia to responsible ambulation. […] The excretion kinetics of FITC-sinistrin was determined using a sampling rate of 60 measurements per minute with an excitation time of 10 milliseconds per measurement for 120 minutes after the injection. One compartment model was used for FITC-sinistrin clearance. After completion of GFR measurement, the device was gently removed from the skin and the rat returned to its home cage.

[4] = system: male obese ZSF1 rats (diabetic nephropathy model); assay: ZSF1 rat study: plasma triglyceride and cholesterol; settings: obese ZSF1 rats, 10 mpk in-feed; for plasma cholesterol levels: in mg/dL (unit assumed)
Experimental: as §1

[5] = system: male obese ZSF1 rats (diabetic nephropathy model); assay: ZSF1 rat study: kidney collagen I and III immunostaining; settings: obese ZSF1 rats, 10 mpk in-feed, week 28
Experimental: as §1
Following deparaffinization and rehydration, each kidney tissue section was processed to identify collagen I and III deposition. The primary antibodies used were rabbit anti-type I collagen polyclonal antibody (Abcam, Cambridge, Mass.) diluted at 2 ug/ml, and rabbit anti-type III collagen polyclonal antibody (Lifespan, Seattle, Wash.) at 3 ug/ml. The signal was developed by using Super PicTure HRP Polymer Rabbit Primary kit (Invitrogen) and the slides were counterstained with hematoxylin. The Aperio ScanScope XT Slide Scanner (Aperio Technologies, Vista, Calif.) system was used to capture whole slide digital images with a 20× objective. Digital images were managed using Aperio Spectrum. The positive stains were identified and quantified using a macro created from a color deconvolution algorithm (Aperio Technologies, Vista, Calif.).

[6] = system: male obese ZSF1 rats (diabetic nephropathy model); assay: ZSF1 rat study: renal fibrosis score (histology); settings: obese ZSF1 rats, 10 mpk in-feed, week 28
Experimental: as §1
Upon completion of the study, animals were euthanized and blood and organs (kidney, heart, aorta, eyes, and lumber vertebrae (LV1-LV5) and left femur) were collected for histology assessment (including EM for the kidneys) or DEXA scan (lumber vertebrae and left femur). Kidney tissues were fixed in 10% formalin and then paraffin embedded. Tissue sections were stained with hematoxylin and eosin (H&E), periodic acid-Schiff (PAS), and Masson's trichrome and evaluated under light microscope. The severity of histopathologic changes in renal tubules, interstitium, vasculature, and glomeruli were graded on a 1 to 5 scale corresponding to minimal, mild, moderate, marked, and severe as described previously. Sections from both kidneys were examined. Collagen deposition in the kidney was graded on a 1 to 5 scale corresponding to minimal, mild, moderate, marked, and severe, based on the blue stained area size and intensity.

[7] = system: male obese ZSF1 rats (diabetic nephropathy model); assay: ZSF1 rat study: kidney mRNA expression of profibrotic genes and integrin beta3; settings: obese ZSF1 rats, 10 mpk in-feed, week 28
Experimental: as §1

Structure (SMILES): CCOC(=O)[C@H](CCc1ccccc1)N[C@@H](C)C(=O)N1CCC[C@H]1C(=O)O [Enalapril, reference compound]
- Body Weight ([1]; week 1): 570.2 ± 10.3 grams
- Food Intake ([1]; week 1): 30.1 ± 1.3 grams/24 h
- Water Intake ([1]; week 1): 50.2 ± 6.2 mls/24 h
- Body Weight ([1]; week 2): 578.3 ± 11.2 grams
- Food Intake ([1]; week 2): 31.7 ± 1.4 grams/24 h
- Water Intake ([1]; week 2): 55.0 ± 5.2 mls/24 h
- Body Weight ([1]; week 4): 585.7 ± 11.1 grams
- Food Intake ([1]; week 4): 33.1 ± 1.0 grams/24 h
- Water Intake ([1]; week 4): 56.6 ± 6.0 mls/24 h
- Body Weight ([1]; week 6): 606.1 ± 11.6 grams
- Food Intake ([1]; week 6): 33.1 ± 1.0 grams/24 h
- Water Intake ([1]; week 6): 61.7 ± 5.5 mls/24 h
- Body Weight ([1]; week 8): 623.8 ± 13.3 grams
- Food Intake ([1]; week 8): 35.1 ± 1.5 grams/24 h
- Water Intake ([1]; week 8): 85.4 ± 7.4 mls/24 h
- Body Weight ([1]; week 10): 637.2 ± 14.1 grams
- Body Weight ([1]; week 12): 655.6 ± 14.2 grams
- Food Intake ([1]; week 12): 36.6 ± 1.5 grams/24 h
- Water Intake ([1]; week 12): 91.7 ± 7.5 mls/24 h
- Body Weight ([1]; week 14): 658.1 ± 16.2 grams
- Body Weight ([1]; week 16): 671.1 ± 16.8 grams
- Food Intake ([1]; week 16): 33.3 ± 1.6 grams/24 h
- Water Intake ([1]; week 16): 83.3 ± 8.3 mls/24 h
- Body Weight ([1]; week 18): 682.1 ± 16.4 grams
- Body Weight ([1]; week 21): 709.5 ± 18.0 grams
- Food Intake ([1]; week 21): 37.7 ± 1.6 grams/24 h
- Water Intake ([1]; week 21): 75.8 ± 5.9 mls/24 h
- Body Weight ([1]; week 24): 733.7 ± 20.2 grams
- Food Intake ([1]; week 24): 35.5 ± 1.3 grams/24 h
- Water Intake ([1]; week 24): 89.7 ± 7.9 mls/24 h
- Body Weight ([1]; week 28): 753.7 ± 21.8 grams
- Food Intake ([1]; week 28): 33.6 ± 1.5 grams/24 h
- Water Intake ([1]; week 28): 68.0 ± 6.5 mls/24 h
- Body Weight ([1]; week −2): 522.2 ± 10.2 grams
- Food Intake ([1]; week −2): 37.5 ± 1.5 grams/24 h
- Water Intake ([1]; week −2): 68.1 ± 4.9 mls/24 h
- 24 h Urinary Protein Excretion ([2]; week 1): 73.9 ± 3.8 mg/24 h
- UPCR (urinary protein/creatinine ratio) ([2]; week 1): 6.3 ± 0.3 mg/mg
- 24 h Urinary Protein Excretion ([2]; week 2): 91.2 ± 4.9 mg/24 h
- UPCR (urinary protein/creatinine ratio) ([2]; week 2): 7.4 ± 0.4 mg/mg
- 24 h Urinary Protein Excretion ([2]; week 4): 96.1 ± 5.1 mg/24 h
- UPCR (urinary protein/creatinine ratio) ([2]; week 4): 8.0 ± 0.4 mg/mg
- 24 h Urinary Protein Excretion ([2]; week 6): 92.2 ± 6.0 mg/24 h
- UPCR (urinary protein/creatinine ratio) ([2]; week 6): 7.3 ± 0.4 mg/mg
- 24 h Urinary Protein Excretion ([2]; week 8): 135.3 ± 10.2 mg/24 h
- UPCR (urinary protein/creatinine ratio) ([2]; week 8): 10.2 ± 0.6 mg/mg
- 24 h Urinary Protein Excretion ([2]; week 12): 234.8 ± 16.4 mg/24 h
- UPCR (urinary protein/creatinine ratio) ([2]; week 12): 17.1 ± 0.9 mg/mg
- 24 h Urinary Protein Excretion ([2]; week 16): 252.2 ± 21.1 mg/24 h
- UPCR (urinary protein/creatinine ratio) ([2]; week 16): 14.0 ± 0.7 mg/mg
- 24 h Urinary Protein Excretion ([2]; week 21): 274.5 ± 16.8 mg/24 h
- UPCR (urinary protein/creatinine ratio) ([2]; week 21): 15.6 ± 0.6 mg/mg
- 24 h Urinary Protein Excretion ([2]; week 24): 289.4 ± 16.5 mg/24 h
- UPCR (urinary protein/creatinine ratio) ([2]; week 24): 16.6 ± 0.8 mg/mg
- 24 h Urinary Protein Excretion ([2]; week 28): 309.6 ± 15.8 mg/24 h
- UPCR (urinary protein/creatinine ratio) ([2]; week 28): 19.5 ± 0.8 mg/mg
- 24 h Urinary Protein Excretion ([2]; week −2): 132.9 ± 9.9 mg/24 h
- UPCR (urinary protein/creatinine ratio) ([2]; week −2): 10.8 ± 0.8 mg/mg
- FITC-sinistrin clearance, % change of improvement compared to Obese Vehicle group [3]: 59.6%****
- Glomerular Filtration Rate [3]: 971.9 ± 53.3 uLs/Min/100 gm BW
- Plasma Triglyceride ([4]; week 2): 2979.8 ± 161.7 mg/dL
- plasma cholesterol levels ([4]; week 2): 220.9 ± 5.9
- Plasma Triglyceride ([4]; week 4): 3212.4 ± 137.6 mg/dL
- plasma cholesterol levels ([4]; week 4): 251.1 ± 7.4
- Plasma Triglyceride ([4]; week 6): 2866.6 ± 145.5 mg/dL
- plasma cholesterol levels ([4]; week 6): 232.5 ± 6.0
- Plasma Triglyceride ([4]; week 8): 3770.3 ± 280.6 mg/dL
- plasma cholesterol levels ([4]; week 8): 294.3 ± 6.7
- Plasma Triglyceride ([4]; week 12): 3298.3 ± 221.4 mg/dL
- plasma cholesterol levels ([4]; week 12): 290.2 ± 7.6
- Plasma Triglyceride ([4]; week 16): 3554.6 ± 186.3 mg/dL
- plasma cholesterol levels ([4]; week 16): 319.3 ± 9.9
- Plasma Triglyceride ([4]; week 21): 3224.3 ± 240.5 mg/dL
- plasma cholesterol levels ([4]; week 21): 321.1 ± 11.3
- Plasma Triglyceride ([4]; week 24): 3180.2 ± 204.5 mg/dL
- plasma cholesterol levels ([4]; week 24): 354.3 ± 12.5
- Plasma Triglyceride ([4]; week 28): 2855.1 ± 291.3 mg/dL
- plasma cholesterol levels ([4]; week 28): 368.8 ± 13.2
- Plasma Triglyceride ([4]; week −2): 2023.9 ± 82.1 mg/dL
- plasma cholesterol levels ([4]; week −2): 187.1 ± 5.4
- kidney collagen I protein levels [5]: 34.83 ± 0.71 % of area
- kidney collagen III protein levels [5]: 19.19 ± 0.90 % of area
- renal fibrosis score (expressed as 0-5) [6]: 2.0 ± 0.1
- Collagen I (a1) expression in the kidney [7]: 0.54 ± 0.02
- Collagen III (a1) expression in the kidney [7]: 0.39 ± 0.02
- Integrin beta3 expression in the kidney [7]: 0.68 ± 0.03
- PAI-1 expression in the kidney [7]: 0.52 ± 0.04

Source: US20180110762A1, “Compositions Methods for Treating Chronic Kidney Disease” (Merck Sharp & Dohme Corp, priority 2015, published 2018)
